Results taken from patent US10842765B2, “Methods of reducing or preventing oxidation of small dense ldl or membrane polyunsaturated fatty acids” (Amarin Pharmaceuticals Ireland Limited, priority 2016, dated 2020).
Values joined by “and” are separate entries in the source; they are usually repeats but may differ in a detail not shown here. Equal entries are not always repeated.

What was measured:
[1] = tested on: human LDL; assay: Copper-induced unfractionated LDL oxidation, TBARS, Example 7; assay type: biochemical; conditions: beginning at 1.0 μM; 1 hour
[2] = tested on: human sdLDL; assay: Copper-induced sdLDL oxidation, TBARS, Example 7; assay type: biochemical
Description: Samples were prepared at 100 μg/mL sdLDL and incubated with EPA or DHA (10.0 μM each) for 30 minutes prior to initiating lipid oxidation using 10 μM CuSO4. Samples were maintained at 37° C. in a shaking water bath for 1 hour. Lipid oxidation was measured by colorimetric assay of TBARS formation and expressed as molar equivalents of MDA.
An experiment to study the antioxidant effect of EPA in LDL and small dense LDL (“sdLDL”) was performed. LDL and sdLDL were isolated from the plasma of healthy volunteers by iodixanol density gradient ultracentrifugation, and adjusted to a final apolipoprotein concentration of 2 mg/mL. […] Lipid oxidation was initiated with 10 μM CuSO4 and monitored by the colorimetric detection of thiobarbituric acid reactive substances (TBARS) for 1 hr. Vitamin E was also incubated with sample aliquots as a positive control.

[3] = tested on: rat renal glomerular endothelial cells; assay: NO and ONOO- release ex vivo from glomerular endothelial cells exposed to oxLDL and high glucose, Example 13; assay type: cell-based; conditions: 10.0 μM, 1 hr; oxLDL 11 mg/dL and glucose 300 mg/dL; vs vehicle
Description: Healthy male Wistar Kyoto (WKY) rats, aged 7-9 weeks and weighing 250±20 g, were obtained from inbred colonies (National Institutes of Health, Bethesda, Md.). Animals were housed in a controlled environment that provided food and water ad libitum prior to the study. […] Animals were sacrificed and tissue samples obtained immediately for experimentation. All procedures were conducted in accordance with standard Institutional Animal Care and Use Committee guidelines and conformed to the Guide for the Care and Use of Laboratory Animals published by the US National Institutes of Health.
EPA and DHA were purchased from Sigma-Aldrich (St. Louis, Mo.) and solubilized in ethanol to 1.0 mM under nitrogen atmosphere. […]
LDL was oxidized according to the methods of Huber et al. 16 Briefly, the purified LDL fraction was dialyzed against Tris/NaCl Buffer (50 mM Tris in 0.15 M NaCl, pH 8.0) to remove EDTA. […] LDL oxidation was initiated with 20 μM CuSO4 and monitored spectrophotometrically (234 nm) over a period of 24 hours until complete. […]
Each analyte was measured from amperograms and standard calibration curves collected under maximum current. […] Changes in current (proportional to the molar concentrations of NO or ONOO^− released) were monitored continuously immediately following Cal stimulation. […]

[4] = Glucose-induced membrane lipid peroxidation (LOOH) in lipid vesicles, Example 4; assay type: biochemical; conditions: 1.0 μM; glucose 200 mg/dL; 96 hours
Description: An experiment was conducted to test the ability of EPA to interfere with the effects of high glucose on membrane lipid peroxidation and organization in vesicles enriched with PUFAs. […] Vitamin E (α-tocopherol) was also purchased from Sigma-Aldrich and prepared in ethanol at 1.0 mM (ε=3.06×10^4 M^−1 cm^−1 at 294 nm) just prior to experimental use. […] All test compounds were further diluted in ethanol or aqueous buffer as needed. Glucose was prepared in saline buffer (0.5 mM HEPES, 154 mM NaCl, pH 7.3) at 11.0 mM (200 mg/dL). CHOD-iodide color reagent (stock) was prepared, with slight modification, as described by from El-Saadani et al. (J. […] Samples were shell-dried under nitrogen gas and placed under vacuum for 1 h to remove residual solvent. […] Lipid suspensions were then vortexed for 3 min at ambient temperature to form MLVs. All MLV samples were subjected to time-dependent autoxidation by incubating at 37° C. in an uncovered, shaking water bath. This method allows lipid peroxidation to occur gradually without requiring the use of exogenous initiators. Small aliquots (5-100 μL) of each sample were removed, immediately following MLV preparation (0 hour) and after exposing samples to oxidative conditions for 72 or 96 hour, and combined with 1.0 mL of activated CHOD-iodide color reagent. Aliquot volume was reduced with each successive time point to ensure that spectrophotometric readings were within the optimal adsorption range. Test samples were covered and incubated in darkness at room temperature for at least 4 hr. Sample absorbances were then measured against a CHOD blank at 365 nm using a Beckman DU-640 spectrophotometer. The CHOD colorimetric assay is based on the oxidation of iodide (I^−) by lipid hydroperoxide (LOOH) to form triiodide (I3^−), the quantity of which is directly proportional to the amount of LOOH present in the lipid sample. The molar absorptivity (I3^−) of I3^− is 2.46×10^4 M^−1 cm^−1 at 365 nm. […]

[5] = tested on: HUVECs; assay: NO and ONOO- release from HUVECs exposed to oxLDL (nanosensors), Example 8; assay type: cell-based, human; conditions: ECs exposed to oxLDL
Description: Human umbilical vein endothelial cells (HUVECs) were isolated into primary cultures from female donors by Clonetics (San Diego, Calif.) and purchased as proliferating cells. All cell culture donors were healthy, with no pregnancy or prenatal complications. […] The confluent cells (4 to 5×10^5 cells/35 mm dish) were placed with minimum essential medium containing 3 mM L-arginine and 0.1 mM BH4 [(6R)-5,6,7,8-tetrahydrobiopterin]. Before experimental use, the cells (from second or third passage) were rinsed twice with Tyrode-HEPES buffer with 1.8 mM CaCl2. […]
Oxidation was monitored by the use of measurements of TBARS. […] TBARS concentration was determined as malondialdehyde (MDA) equivalents with the use of an MDA standard curve. […]
The amperometric method (with a response time of 0.1 ms) provides a quantitative signal (current) that is directly proportional to changes (from basal levels) in NO or ONOO^− concentration. […] Basal NO or ONOO^− levels were measured by differential pulse voltammetry in separate experiments. […]
Data are presented as mean±S.D. for (N) separate samples or experiments. Differences between groups were analyzed using the two-tailed, Student t-test (for comparisons between only two groups) or ANOVA followed by Student-Newman-Keuls multiple comparisons post-hoc analysis (for comparisons between three or more groups). […]

[6] = X-ray diffraction of membrane cholesterol domains in POPC/cholesterol model membranes, Example 9; conditions: C/P 1.5:1
Description: The fatty acid stock solutions were stored at −20° C. until use.
Samples were shell-dried under nitrogen gas and placed under vacuum for 3 hours to remove residual solvent at room temperature. After desiccation, each sample was resuspended in saline buffer (0.5 mM HEPES, 154 mM NaCl, pH 7.3) to yield a final phospholipid concentration of 2.5 mg/mL. Lipid suspensions were then vortexed for 3 minutes at ambient temperature to form MLVs.
Briefly, a 100 μL aliquot of each MLV preparation (containing 250 μg MLV) was transferred to a Lucite® sedimentation cell fitted with an aluminum foil substrate designed to collect MLVs into a single membrane pellet upon centrifugation.
After centrifugal orientation, sample supernatants were aspirated and aluminum foil substrates, each supporting a single membrane pellet, were removed from the sedimentation cells. Sample pellets were dried for 5-10 minutes at ambient conditions, mounted onto curved glass supports, and placed in hermetically-sealed, brass or glass containers (for immediate analysis or temporary storage, respectively). All x-ray diffraction experiments were conducted at 20° C., 74% relative humidity. The latter was established by exposing membrane samples to saturated solutions of L-(+)-tartaric acid (K2C4H4O6.½H2O) for at least 1 hour prior to experimental analysis. […]

SMILES | inhibition of unfractionated LDL oxidation, dose dependence [1] | inhibition of sdLDL oxidation vs vehicle ([2]; ATM at the highest dose, 1 hr) | reduction in ONOO^− release [3] | antioxidant effects, separate treatments [4] | inhibition of sdLDL oxidation as compared to vehicle or DHA ([2]; 10.0 μM, after 4 hours) | inhibition of sdLDL oxidation (TBARS formation) vs vehicle ([2]; each agent 10 μM, 1 hr) | increase in NO release as compared to vehicle [5] | Relative Chotesterol Domain Peak Intensity ([6]; EPA D/P mole ratio 1:60) | Relative Chotesterol Domain Peak Intensity ([6]; EPA D/P mole ratio 1:90)
CC(C)c1c(C(=O)Nc2ccccc2O)c(-c2ccccc2)c(-c2ccc(F)cc2)n1CC[C@@H](O)C[C@@H](O)CC(=O)O [ATM, Ortho (o)-hydroxy atorvastatin metabolite] | significant and dose-dependent inhibition of unfractionated LDL oxidation | 90±2% | 25% | separate and potent antioxidant effects |  |  |  |  | 
CC/C=C\C/C=C\C/C=C\C/C=C\C/C=C\CCCC(=O)O [EPA, cis-5,8,11,14,17-eicosapentaenoic acid] |  |  |  | separate and potent antioxidant effects | significantly inhibited sdLDL oxidation | 93±2% and 92±8% | 45% | 29.5 ± 10.9 | 36.0 ± 3.1
